Measured values from a compilation of properties of binary mixtures (doi:10.1007/s10953-017-0695-7).

Experiment: xn = mol fraction of the nth substance listed
Conditions: 101 kPa

CCCCCO + CCCCCC[n+]1ccn(C)c1.[Cl-]
x1 = 1
Conditions	viscosity [mPa·s]
293.15 K	3.99
313.15 K	2.29
323.15 K	1.79
333.15 K	1.39

OCCO + CCCCCC[n+]1ccn(C)c1.[Cl-]
x1 = 1
Conditions	viscosity [mPa·s]
293.15 K	21.35
303.15 K	14.1
313.15 K	9.74
323.15 K	7.02
333.15 K	5.2

CCCCCC[n+]1ccn(C)c1.[Cl-] + CCCCCO
viscosity [mPa·s]
Conditions	293.15 K	303.15 K	313.15 K	323.15 K	333.15 K
x1 = 0.0042	4.14	–	–	1.85	1.46
x1 = 0.0088	–	3.23	2.49	1.92	1.54
x1 = 0.0166	4.56	–	2.62	2.03	1.61
x2 = 0	11400	4206	1718	–	398
x2 = 0.1514	3550	–	803	418	192.5
x2 = 0.2971	1014	491	–	148.2	91
x2 = 0.5018	182.4	108.3	68.1	44.92	31.33
x2 = 0.6066	75.1	48.8	32.87	23.14	16.9
x2 = 0.7018	31.71	22.14	16.01	11.88	–
x2 = 0.8012	14.74	10.86	–	–	4.99
x2 = 0.849	–	7.85	6.03	4.68	3.76
x2 = 0.8825	8.5	6.37	4.92	3.87	3.06
x2 = 0.9494	5.73	4.29	3.28	2.56	2.02
x2 = 0.9749	4.83	3.63	2.81	2.17	1.71

CCCCCC[n+]1ccn(C)c1.[Cl-] + OCCO
viscosity [mPa·s]
Conditions	293.15 K	303.15 K	313.15 K	323.15 K	333.15 K
x1 = 0.003	–	14.18	9.77	7.07	5.21
x1 = 0.0061	21.52	14.23	9.86	–	–
x1 = 0.0124	21.64	14.24	9.94	7.17	5.33
x1 = 0.0188	21.81	–	–	7.24	5.4
x2 = 0	11400	–	1718	–	398
x2 = 0.1526	3449	861	629	326	–
x2 = 0.3167	774	385	214.7	127.1	79.6
x2 = 0.3999	387	210.7	124.2	77.3	51.2
x2 = 0.4977	–	102.8	65.1	42.5	–
x2 = 0.6002	–	53	35.51	–	18.06
x2 = 0.6987	46.8	30.76	–	–	–
x2 = 0.8026	29.46	19.81	13.95	10.18	7.71
x2 = 0.8897	24.2	16.2	–	8.37	6.32
x2 = 0.8998	23.77	16.02	11.25	–	6.18
x2 = 0.9152	23.12	15.52	10.98	7.98	6
x2 = 0.931	22.64	15.24	10.67	7.73	5.82
x2 = 0.9532	22.13	14.78	10.37	7.51	–
x2 = 0.9642	22.02	14.71	–	–	5.53
x2 = 0.9761	21.83	14.45	–	7.27	5.46
